The results in this text go back to ChEMBL document CHEMBL1154949, “2-Amino-aryl-7-aryl-benzoxazoles as potent, selective and orally available JAK2 inhibitors” (Bioorg Med Chem Lett, 2010).

A word on the IC50: it is the concentration needed to halve the response being measured. For orientation: GI50 means the concentration at which growth is held to half of that of the control. Low values mean more potent growth inhibition, high ones less potent growth inhibition. For orientation: clearance means the volume of plasma or blood freed of the substance per unit of time. Read a high clearance as efficient removal. By half-life is commonly meant how long it takes for the measured level to halve. Broadly, the AUC is the area under the concentration-time curve, a measure of exposure. A high value points to more exposure. Broadly, the Tmax is the time from dosing to the highest level. As usually defined, the Cmax is the peak of the concentration-time curve.

Series [1] has as its target Tyrosine-protein kinase JAK2 (Homo sapiens, UniProt O60674). Description: Inhibition of GST-tagged JAK2 assessed as inhibition of biotinylated JAK3tide peptide phosphorylation after 60 mins by caliper mobility shift assay.
In series [2] the target is Tyrosine-protein kinase JAK1 (Homo sapiens, UniProt P23458). Description: Inhibition of GST-tagged JAK1 assessed as inhibition of biotinylated IRS1 substrate phosphorylation after 60 mins by caliper mobility shift assay.
Series [3] deals with T1, Tyrosine-protein kinase JAK3 (Homo sapiens, UniProt P52333).
T1 sequence (P52333 whole entry): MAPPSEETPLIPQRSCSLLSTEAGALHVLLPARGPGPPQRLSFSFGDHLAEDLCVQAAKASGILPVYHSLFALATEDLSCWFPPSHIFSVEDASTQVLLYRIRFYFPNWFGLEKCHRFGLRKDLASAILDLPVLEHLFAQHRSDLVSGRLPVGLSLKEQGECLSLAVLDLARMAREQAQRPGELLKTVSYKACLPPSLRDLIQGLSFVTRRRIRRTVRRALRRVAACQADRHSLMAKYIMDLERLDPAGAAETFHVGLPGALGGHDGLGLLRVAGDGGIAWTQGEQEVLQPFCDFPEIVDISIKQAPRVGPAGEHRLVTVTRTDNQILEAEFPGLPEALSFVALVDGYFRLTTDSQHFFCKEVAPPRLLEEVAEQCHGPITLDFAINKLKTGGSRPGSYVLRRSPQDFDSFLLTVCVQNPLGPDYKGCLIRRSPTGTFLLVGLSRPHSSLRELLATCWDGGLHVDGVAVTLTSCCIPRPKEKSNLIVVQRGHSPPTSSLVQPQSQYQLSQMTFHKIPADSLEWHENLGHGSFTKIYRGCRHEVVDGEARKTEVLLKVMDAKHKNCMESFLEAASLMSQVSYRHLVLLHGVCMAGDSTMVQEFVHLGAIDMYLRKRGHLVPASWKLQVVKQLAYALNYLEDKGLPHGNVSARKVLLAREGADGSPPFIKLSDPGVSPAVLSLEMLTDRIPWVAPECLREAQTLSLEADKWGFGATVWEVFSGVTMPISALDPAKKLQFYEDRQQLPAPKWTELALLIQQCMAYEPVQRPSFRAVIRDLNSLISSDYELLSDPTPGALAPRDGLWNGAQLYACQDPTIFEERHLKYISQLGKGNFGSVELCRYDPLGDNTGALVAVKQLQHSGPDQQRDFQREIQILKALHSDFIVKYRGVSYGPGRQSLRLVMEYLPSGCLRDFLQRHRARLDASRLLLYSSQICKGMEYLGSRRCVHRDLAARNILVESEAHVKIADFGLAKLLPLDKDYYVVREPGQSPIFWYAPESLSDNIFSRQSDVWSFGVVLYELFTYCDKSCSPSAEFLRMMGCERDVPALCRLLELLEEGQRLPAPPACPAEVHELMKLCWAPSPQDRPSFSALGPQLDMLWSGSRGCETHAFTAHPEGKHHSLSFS
The series is described as follows: Inhibition of GST-tagged JAK3 assessed as inhibition of biotinylated JAK3tide peptide phosphorylation after 60 mins by caliper mobility shift assay.

The target in series [4] is Non-receptor tyrosine-protein kinase TYK2 (Homo sapiens, UniProt P29597). The series is described as follows: Inhibition of GST-tagged TYK2 assessed as inhibition of biotinylated IRS1 substrate phosphorylation after 60 mins by caliper mobility shift assay.
A short description of series [5]: Antiproliferative activity against human SET2 cells harboring JAK2 V617F mutant after 72 hrs by […]. Format: functional. To be noted: SET-2, 72 h.
Series [6] is described as follows: Clearance in rat at 0.5 ml/kg, iv. The class given is ADME, organism-based. To be noted: in vivo.
Series [7] in a line: Volume of distribution at steady state in rat at 0.5 ml/kg, iv. Format: ADME, organism-based. To be noted: in vivo, read-out: Vdss.
Series [8] in a line: Terminal half life in rat at 0.5 ml/kg, iv. The class given is ADME, organism-based. To be noted: in vivo.
For series [9], the system named is Rattus norvegicus. Description: Dose normalized AUC in rat at 1 mg/kg, iv. The class given is ADME, organism-based. The arrangement: dose 1 mg/kg, route intravenous. To be noted: in vivo.
For series [10], the system named is Rattus norvegicus. Description: Dose normalized AUC in rat at 1 mg/kg, po. The class given is ADME, organism-based. Set-up: dose 1 mg/kg, route oral. To be noted: in vivo.
Series [11] in a line: Tmax in rat at 2.5 ml/kg, po. Format: ADME, organism-based. To be noted: in vivo.
A short description of series [12]: Cmax in rat at 2.5 ml/kg, po. The arrangement: dose 2.5 ml/kg, route oral. The conditions noted are these: in vivo. The class given is ADME, organism-based.
A short description of series [13]: Oral bioavailability in rat at 2.5 ml/kg. To be noted: in vivo. Format: ADME, organism-based.

Sequence of Tyrosine-protein kinase JAK1 (P23458 whole entry): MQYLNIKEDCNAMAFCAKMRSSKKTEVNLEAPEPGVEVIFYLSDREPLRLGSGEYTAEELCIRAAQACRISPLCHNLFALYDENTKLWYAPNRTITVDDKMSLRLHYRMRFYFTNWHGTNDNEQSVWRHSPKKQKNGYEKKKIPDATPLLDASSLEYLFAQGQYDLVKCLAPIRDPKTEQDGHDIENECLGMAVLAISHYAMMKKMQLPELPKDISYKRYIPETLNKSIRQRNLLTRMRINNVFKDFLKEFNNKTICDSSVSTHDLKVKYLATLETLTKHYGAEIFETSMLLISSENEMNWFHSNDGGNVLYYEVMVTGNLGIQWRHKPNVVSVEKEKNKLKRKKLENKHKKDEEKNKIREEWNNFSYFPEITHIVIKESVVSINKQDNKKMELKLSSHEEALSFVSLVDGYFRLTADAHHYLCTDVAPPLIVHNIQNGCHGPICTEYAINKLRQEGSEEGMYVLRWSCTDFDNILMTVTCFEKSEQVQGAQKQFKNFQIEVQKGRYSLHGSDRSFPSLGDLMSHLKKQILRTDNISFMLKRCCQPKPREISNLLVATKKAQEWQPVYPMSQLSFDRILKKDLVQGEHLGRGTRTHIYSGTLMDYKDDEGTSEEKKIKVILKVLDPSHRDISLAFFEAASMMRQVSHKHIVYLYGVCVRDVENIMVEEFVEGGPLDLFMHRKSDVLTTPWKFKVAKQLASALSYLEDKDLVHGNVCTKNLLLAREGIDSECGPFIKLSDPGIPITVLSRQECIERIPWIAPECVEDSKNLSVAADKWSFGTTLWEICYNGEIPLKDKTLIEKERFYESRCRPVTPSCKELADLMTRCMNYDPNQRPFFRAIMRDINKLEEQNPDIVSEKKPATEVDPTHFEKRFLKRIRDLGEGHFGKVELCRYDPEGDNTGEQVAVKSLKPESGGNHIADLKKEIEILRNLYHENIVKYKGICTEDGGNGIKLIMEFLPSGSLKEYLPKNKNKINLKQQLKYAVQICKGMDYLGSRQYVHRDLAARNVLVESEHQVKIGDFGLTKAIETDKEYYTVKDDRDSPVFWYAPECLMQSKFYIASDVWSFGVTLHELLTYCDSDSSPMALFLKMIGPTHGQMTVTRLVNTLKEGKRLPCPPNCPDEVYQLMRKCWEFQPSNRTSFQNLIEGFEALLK
Sequence of Tyrosine-protein kinase JAK2 (O60674 whole entry): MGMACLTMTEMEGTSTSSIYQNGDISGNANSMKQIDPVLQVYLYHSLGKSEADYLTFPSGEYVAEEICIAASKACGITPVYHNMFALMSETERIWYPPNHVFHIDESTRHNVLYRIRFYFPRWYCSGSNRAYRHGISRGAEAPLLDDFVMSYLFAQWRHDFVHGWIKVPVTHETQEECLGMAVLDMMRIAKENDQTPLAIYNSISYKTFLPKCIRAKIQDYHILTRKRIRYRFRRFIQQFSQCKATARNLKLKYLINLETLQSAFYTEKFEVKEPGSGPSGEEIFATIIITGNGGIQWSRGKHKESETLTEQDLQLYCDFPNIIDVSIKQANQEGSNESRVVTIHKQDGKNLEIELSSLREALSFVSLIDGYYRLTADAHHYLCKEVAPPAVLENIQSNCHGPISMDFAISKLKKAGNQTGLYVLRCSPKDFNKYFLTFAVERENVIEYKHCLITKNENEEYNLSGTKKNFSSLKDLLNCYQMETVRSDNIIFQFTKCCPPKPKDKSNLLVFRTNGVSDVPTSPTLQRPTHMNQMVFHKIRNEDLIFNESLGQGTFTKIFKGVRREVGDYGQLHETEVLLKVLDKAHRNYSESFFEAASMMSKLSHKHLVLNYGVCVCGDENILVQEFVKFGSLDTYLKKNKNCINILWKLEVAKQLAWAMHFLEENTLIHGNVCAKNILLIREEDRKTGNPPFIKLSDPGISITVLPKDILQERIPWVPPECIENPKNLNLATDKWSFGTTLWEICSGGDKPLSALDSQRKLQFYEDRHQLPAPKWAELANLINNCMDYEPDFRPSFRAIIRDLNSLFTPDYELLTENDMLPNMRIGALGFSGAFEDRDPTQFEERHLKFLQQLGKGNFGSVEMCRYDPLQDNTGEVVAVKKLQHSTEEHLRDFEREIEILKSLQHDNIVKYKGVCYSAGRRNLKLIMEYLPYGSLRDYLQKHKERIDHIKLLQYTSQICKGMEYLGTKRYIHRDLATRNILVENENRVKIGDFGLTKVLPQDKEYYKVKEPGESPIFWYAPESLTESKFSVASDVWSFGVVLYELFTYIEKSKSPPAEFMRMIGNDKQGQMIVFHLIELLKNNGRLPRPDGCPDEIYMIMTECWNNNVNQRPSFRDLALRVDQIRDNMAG
Sequence of Non-receptor tyrosine-protein kinase TYK2 (P29597 whole entry): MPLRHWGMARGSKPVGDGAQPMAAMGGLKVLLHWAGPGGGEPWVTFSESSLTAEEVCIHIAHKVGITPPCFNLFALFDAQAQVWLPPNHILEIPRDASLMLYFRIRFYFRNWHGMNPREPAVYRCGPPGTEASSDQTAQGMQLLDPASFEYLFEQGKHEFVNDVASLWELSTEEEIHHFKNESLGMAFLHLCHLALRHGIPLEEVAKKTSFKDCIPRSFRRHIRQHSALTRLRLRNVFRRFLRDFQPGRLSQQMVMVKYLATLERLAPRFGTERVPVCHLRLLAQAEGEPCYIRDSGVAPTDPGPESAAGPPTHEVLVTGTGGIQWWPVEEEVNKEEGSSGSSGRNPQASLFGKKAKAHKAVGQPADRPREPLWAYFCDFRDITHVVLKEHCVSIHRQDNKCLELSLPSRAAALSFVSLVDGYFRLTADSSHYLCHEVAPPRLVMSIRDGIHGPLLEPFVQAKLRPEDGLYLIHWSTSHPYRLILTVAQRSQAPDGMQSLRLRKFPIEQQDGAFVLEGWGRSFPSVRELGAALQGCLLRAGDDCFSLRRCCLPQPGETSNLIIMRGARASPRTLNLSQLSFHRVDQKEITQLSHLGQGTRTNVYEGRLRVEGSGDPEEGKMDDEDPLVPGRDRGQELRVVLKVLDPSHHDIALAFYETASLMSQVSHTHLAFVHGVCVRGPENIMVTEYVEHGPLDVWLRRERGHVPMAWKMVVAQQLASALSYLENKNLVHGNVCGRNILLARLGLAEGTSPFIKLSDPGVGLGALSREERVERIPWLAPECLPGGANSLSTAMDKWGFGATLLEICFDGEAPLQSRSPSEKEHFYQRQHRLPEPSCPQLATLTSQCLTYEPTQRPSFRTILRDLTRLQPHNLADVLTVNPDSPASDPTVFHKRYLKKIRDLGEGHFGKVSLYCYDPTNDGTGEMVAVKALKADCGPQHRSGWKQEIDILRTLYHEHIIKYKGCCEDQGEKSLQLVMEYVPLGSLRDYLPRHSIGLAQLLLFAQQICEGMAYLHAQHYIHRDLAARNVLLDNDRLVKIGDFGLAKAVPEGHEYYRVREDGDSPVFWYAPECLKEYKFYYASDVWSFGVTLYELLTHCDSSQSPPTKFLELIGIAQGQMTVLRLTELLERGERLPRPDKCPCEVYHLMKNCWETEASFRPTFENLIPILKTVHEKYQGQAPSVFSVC

Take `COc1cc(Nc2nc3cccc(-c4ccccn4)c3o2)cc(OC)c1OC`: the half-inhibitory concentration (IC50) stood at 110 nM in series [1], 760 nM in [2], 450 nM in series [3] and 640 nM in [4].

Regarding `Cc1cc(Nc2nc3cccc(-c4ccc(C(=O)N5CCOCC5)cc4)c3o2)ccc1C(=O)N(C)C`, the half-inhibitory concentration (IC50) in [1] came to 8 nM; in series [2], 130 nM. In [5], this compound showed a GI50 of 490 nM.

In the case of `COc1cc(Nc2nc3cccc(-c4cccc(NS(C)(=O)=O)c4)c3o2)cc(OC)c1OC`, the 50% inhibitory concentration (IC50) in [1] was determined as 150 nM; in series [2], 680 nM; in series [3] it was 2000 nM; in series [4], 3600 nM.

On to `COc1cc(Nc2nc3cccc(-c4ccc(C(=O)N5CCOCC5)c(F)c4)c3o2)cc(OC)c1OC`, for which the figures for the half-inhibitory concentration (IC50) in series [1], in [2] and in series [4] were below 3 nM, 22 nM and 63 nM, respectively. In series [5], this compound came in with a GI50 of 150 nM.

`COc1cc(Nc2nc3cccc(-c4cccc(Cl)c4)c3o2)cc(OC)c1OC`: the IC50 in series [1] was 440 nM; in series [2] it was 5300 nM; in [3], above 10000 nM; in [4], above 10000 nM.

On to `COc1cc(Nc2nc3cccc(-c4ccc(C(=O)N5CCOCC5)cc4)c3o2)cc(OC)c1OC`, for which the IC50 is 8 nM in [1], 27.5 nM in series [2], 400 nM in series [3] and 110 nM in series [4]. In series [5], this compound had a 50% growth inhibitory concentration (GI50) of 160 nM.

As to `COc1cc(Nc2nc3cccc(-c4ccc5ncccc5c4)c3o2)cc(OC)c1OC`, the 50% inhibitory concentration (IC50) came out at 8 nM in series [1], 210 nM in series [2], 670 nM in series [3] and 1400 nM in [4]. In [5], the GI50 is 500 nM.

Regarding `COc1cc(Nc2nc3cccc(-c4ccc(NS(C)(=O)=O)cc4)c3o2)cc(OC)c1OC`, the IC50 in series [1] came out at 5 nM; in [2], 47 nM; in [3] it was 130 nM; in [4], 150 nM. Besides, the GI50 in series [5] was found to be 130 nM.

As to `CN(C)C(=O)c1ccc(Nc2nc3cccc(-c4ccc(C(=O)N5CCOCC5)cc4)c3o2)cc1`, the IC50 in [1] is 39 nM; in series [2], 180 nM; in series [3] it was 620 nM; in [4], 730 nM.

On to `Cc1cc(Nc2nc3cccc(-c4cc(F)c(CN5CCOCC5)c(F)c4)c3o2)ccc1C(=O)N(C)C`, for which the 50% inhibitory concentration (IC50) in series [1] was determined as 5 nM; in series [2] it was 140 nM; in series [3] it was 160 nM; in series [4] it was 200 nM. Further, the GI50 in series [5] came to 200 nM.

Turning to `COc1ccc(-c2cccc3nc(Nc4cc(OC)c(OC)c(OC)c4)oc23)cc1`, the values for the half-maximal inhibitory concentration (IC50) in [2], in series [3] and in series [4] were 8900 nM, above 10000 nM and above 10000 nM, respectively.

For the compound `Cc1cc(Nc2nc3cccc(-c4cc(F)c(CN5CCOCC5)c(F)c4)c3o2)ccc1C(=O)NCCCN(C)C`, the IC50 in series [1] is 5 nM; in series [2], 35 nM; in series [3], 220 nM; in series [4], 97 nM. In addition, the 50% growth inhibitory concentration (GI50) in series [5] is 410 nM.

Turning to `COc1cc(Nc2nc3cccc(-c4ccccc4)c3o2)cc(OC)c1OC`, the IC50 was 710 nM in [2], above 10000 nM in series [3] and 3400 nM in series [4].

In the case of `CNC(=O)c1ccc(Nc2nc3cccc(-c4cc(F)c(CN5CCOCC5)c(F)c4)c3o2)cc1C`, the IC50 in series [1] came out at 5 nM; in [2], 48 nM; in series [3], 190 nM; in series [4], 120 nM. In series [5], this compound gave a GI50 of 260 nM. In [6], the clearance came out at 15 mL/min/kg. Moreover, the Vd in series [7] is 2.3 L/kg. For the same compound, in series [8], the half-life is 192 min. The AUC in series [9] came to 2391 nmol·h/L; in [10], 2435 nmol·h/L. The Tmax in series [11] turned out to be 3.5 h. For the same compound, the Cmax in series [12] turned out to be 242 nM. The bioavailability in [13] was 102%.

With `Cc1cc(-c2cccc3nc(Nc4ccc(N5CCN(C)CC5)cc4)oc23)ccc1C(=O)N1CCOCC1`, the half-maximal inhibitory concentration (IC50) in series [1] is 8 nM; in [2], 67 nM; in series [3] it was 170 nM; in [4] it was 300 nM. The compound further registered a 50% growth inhibitory concentration (GI50) in series [5] of 200 nM.

For the compound `COc1cc(Nc2nc3cccc(-c4ccc(CN5CCOCC5)cc4)c3o2)cc(OC)c1OC`, the results for the IC50 in series [2], in series [3] and in [4] were 82 nM, 300 nM and 310 nM, respectively. For the same compound, the 50% growth inhibitory concentration (GI50) in series [5] came out at 420 nM.
